# Laboratory results taken from ChEMBL document CHEMBL2331210, “New 2-benzylsulfanyl-nicotinic acid based 1,3,4-oxadiazoles: their synthesis and biological evaluation” (2013).
# Tests used:
# UO-31 = experiment: Antitumor activity against human UO31 cells assessed as cell growth at 0.1 uM; assay type: functional; settings: read-out: Activity
# 786-0 = experiment: Antitumor activity against human 786-0 cells assessed as cell growth at 0.1 uM; assay type: functional; settings: read-out: Activity
# TK-10 = experiment: Antitumor activity against human TK10 cells assessed as cell growth at 0.1 uM; assay type: functional; settings: read-out: Activity
# SN12C = experiment: Antitumor activity against human SN12C cells assessed as cell growth at 0.1 uM; assay type: functional; settings: read-out: Activity
# RXF 393 = experiment: Antitumor activity against human RXF393 cells assessed as cell growth at 0.1 uM; assay type: functional; settings: read-out: Activity
# ACHN = experiment: Antitumor activity against human ACHN cells assessed as cell growth at 0.1 uM; assay type: functional; settings: read-out: Activity
# CAKI-1 = experiment: Antitumor activity against human CAKI-1 cells assessed as cell growth at 0.1 uM; assay type: functional; settings: read-out: Activity
# A498 = experiment: Antitumor activity against human A498 cells assessed as cell growth at 0.1 uM; assay type: functional; settings: read-out: Activity
# SK-OV-3 = experiment: Antitumor activity against human SKOV3 cells assessed as cell growth at 0.1 uM; assay type: functional; settings: read-out: Activity
# NCI/ADR-RES = experiment: Antitumor activity against human NCI/ADR-RES cells assessed as cell growth at 0.1 uM; assay type: functional; settings: read-out: Activity
# OVCAR-8 = experiment: Antitumor activity against human OVCAR8 cells assessed as cell growth at 0.1 uM; assay type: functional; settings: read-out: Activity
# OVCAR-5 = experiment: Antitumor activity against human OVCAR5 cells assessed as cell growth at 0.1 uM; assay type: functional; settings: read-out: Activity
# OVCAR-3 = experiment: Antitumor activity against human OVCAR3 cells assessed as cell growth at 0.1 uM; assay type: functional; settings: read-out: Activity
# OVCAR-4 = experiment: Antitumor activity against human OVCAR4 cells assessed as cell growth at 0.1 uM; assay type: functional; settings: read-out: Activity
# IGROV-1 = experiment: Antitumor activity against human IGROV1 cells assessed as cell growth at 0.1 uM; assay type: functional; settings: read-out: Activity
# UACC-62 = experiment: Antitumor activity against human UACC62 cells assessed as cell growth at 0.1 uM; assay type: functional; settings: read-out: Activity
# UACC-257 = experiment: Antitumor activity against human UACC257 cells assessed as cell growth at 0.1 uM; assay type: functional; settings: read-out: Activity
# SK-MEL-5 = experiment: Antitumor activity against human SK-MEL-5 cells assessed as cell growth at 0.1 uM; assay type: functional; settings: read-out: Activity
# SK-MEL-28 = experiment: Antitumor activity against human SK-MEL-28 cells assessed as cell growth at 0.1 uM; assay type: functional; settings: read-out: Activity
# MDA-MB-435 = experiment: Antitumor activity against human MDA-MB-435 cells assessed as cell growth at 0.1 uM; assay type: functional; settings: read-out: Activity
# M14 = experiment: Antitumor activity against human M14 cells assessed as cell growth at 0.1 uM; assay type: functional; settings: read-out: Activity
# Malme-3M = experiment: Antitumor activity against human MALME-3M cells assessed as cell growth at 0.1 uM; assay type: functional; settings: read-out: Activity
# LOX IMVI = experiment: Antitumor activity against human LOXIMVI cells assessed as cell growth at 0.1 uM; assay type: functional; settings: read-out: Activity
# U-251 = experiment: Antitumor activity against human U251 cells assessed as cell growth at 0.1 uM; assay type: functional; settings: read-out: Activity
# SNB-75 = experiment: Antitumor activity against human SNB75 cells assessed as cell growth at 0.1 uM; assay type: functional; settings: read-out: Activity
# SF-539 = experiment: Antitumor activity against human SF539 cells assessed as cell growth at 0.1 uM; assay type: functional; settings: read-out: Activity
# SNB-19 = experiment: Antitumor activity against human SNB19 cells assessed as cell growth at 0.1 uM; assay type: functional; settings: read-out: Activity
# SF-295 = experiment: Antitumor activity against human SF295 cells assessed as cell growth at 0.1 uM; assay type: functional; settings: read-out: Activity
# SF-268 = experiment: Antitumor activity against human SF268 cells assessed as cell growth at 0.1 uM; assay type: functional; settings: read-out: Activity
# COLO 205 = experiment: Antitumor activity against human COLO205 cells assessed as cell growth at 0.1 uM; assay type: functional; settings: read-out: Activity
# SW-620 = experiment: Antitumor activity against human SW620 cells assessed as cell growth at 0.1 uM; assay type: functional; settings: read-out: Activity
# KM12 = experiment: Antitumor activity against human KM12 cells assessed as cell growth at 0.1 uM; assay type: functional; settings: read-out: Activity
# HCT-15 = experiment: Antitumor activity against human HCT15 cells assessed as cell growth at 0.1 uM; assay type: functional; settings: read-out: Activity
# HT-29 = experiment: Antitumor activity against human HT-29 cells assessed as cell growth at 0.1 uM; assay type: functional; settings: read-out: Activity
# HCT-116 = experiment: Antitumor activity against human HCT116 cells assessed as cell growth at 0.1 uM; assay type: functional; settings: read-out: Activity
# [1] = Antitumor activity against human HCC2998 cells assessed as cell growth at 0.1 uM; assay type: functional; settings: HCC 2998, read-out: Activity
# NCI-H460 = experiment: Antitumor activity against human NCI-H460 cells assessed as cell growth at 0.1 uM; assay type: functional; settings: read-out: Activity
# NCI-H522 = experiment: Antitumor activity against human NCI-H522 cells assessed as cell growth at 0.1 uM; assay type: functional; settings: read-out: Activity
# NCI-H23 = experiment: Antitumor activity against human NCI-H23 cells assessed as cell growth at 0.1 uM; assay type: functional; settings: read-out: Activity
# HOP-62 = experiment: Antitumor activity against human HOP62 cells assessed as cell growth at 0.1 uM; assay type: functional; settings: read-out: Activity
# HOP-92 = experiment: Antitumor activity against human HOP92 cells assessed as cell growth at 0.1 uM; assay type: functional; settings: read-out: Activity
# [2] = Antitumor activity against human EKVX cells assessed as cell growth at 0.1 uM; assay type: functional; settings: read-out: Activity
# A549 = experiment: Antitumor activity against human A549/ATCC cells assessed as cell growth at 0.1 uM; assay type: functional; settings: read-out: Activity
# SR = experiment: Antitumor activity against human SR cells assessed as cell growth at 0.1 uM; assay type: functional; settings: read-out: Activity
# MOLT-4 = experiment: Antitumor activity against human MOLT4 cells assessed as cell growth at 0.1 uM; assay type: functional; settings: read-out: Activity
# RPMI-8226 = experiment: Antitumor activity against human RPMI8226 cells assessed as cell growth at 0.1 uM; assay type: functional; settings: read-out: Activity
# K562 = experiment: Antitumor activity against human K562 cells assessed as cell growth at 0.1 uM; assay type: functional; settings: read-out: Activity
# HL-60 = experiment: Antitumor activity against human HL60(TB) cells assessed as cell growth at 0.1 uM; assay type: functional; settings: read-out: Activity
# [3] = system: Mycobacterium tuberculosis; experiment: Antitubercular activity against Mycobacterium tuberculosis H37Rv assessed as growth inhibition after 12 to 28 days by L.J. agar MIC method; assay type: functional
# Aspergillus clavatus = experiment: Antimicrobial activity against Aspergillus clavatus MTCC 1323 assessed as growth inhibition measured after overnight incubation by broth dilution method; assay type: functional
# Aspergillus niger = experiment: Antimicrobial activity against Aspergillus niger MTCC 282 assessed as growth inhibition measured after overnight incubation by broth dilution method; assay type: functional
# Candida albicans = experiment: Antimicrobial activity against Candida albicans MTCC 227 assessed as growth inhibition measured after overnight incubation by broth dilution method; assay type: functional
# Pseudomonas aeruginosa = experiment: Antimicrobial activity against Pseudomonas aeruginosa MTCC 2488 assessed as growth inhibition measured after overnight incubation by broth dilution method; assay type: functional
# Escherichia coli = experiment: Antimicrobial activity against Escherichia coli MTCC 443 assessed as growth inhibition measured after overnight incubation by broth dilution method; assay type: functional
# Streptococcus pyogenes = experiment: Antimicrobial activity against Streptococcus pyogenes MTCC 442 assessed as growth inhibition measured after overnight incubation by broth dilution method; assay type: functional
# Staphylococcus aureus = experiment: Antimicrobial activity against Staphylococcus aureus MTCC 96 assessed as growth inhibition measured after overnight incubation by broth dilution method; assay type: functional
# MDA-MB-468 = experiment: Antitumor activity against human MDA-MB-468 cells assessed as cell growth at 0.1 uM; assay type: functional; settings: read-out: Activity
# T47D = experiment: Antitumor activity against human T47D cells assessed as cell growth at 0.1 uM; assay type: functional; settings: read-out: Activity
# [4] = Antitumor activity against human Hs 578T cells assessed as cell growth at 0.1 uM; assay type: functional; settings: read-out: Activity
# BT-549 = experiment: Antitumor activity against human BT549 cells assessed as cell growth at 0.1 uM; assay type: functional; settings: read-out: Activity
# MDA-MB-231 = experiment: Antitumor activity against human MDA-MB-231/ATCC cells assessed as cell growth at 0.1 uM; assay type: functional; settings: read-out: Activity
# DU-145 = experiment: Antitumor activity against human DU145 cells assessed as cell growth at 0.1 uM; assay type: functional; settings: read-out: Activity
# MCF7 = experiment: Antitumor activity against human MCF7 cells assessed as cell growth at 0.1 uM; assay type: functional; settings: read-out: Activity
# PC-3 = experiment: Antitumor activity against human PC3 cells assessed as cell growth at 0.1 uM; assay type: functional; settings: read-out: Activity
# SK-MEL-2 = experiment: cells; settings: Homo sapiens, SK-MEL-2, read-out: Activity
# Description: Antitumor activity against human SK-MEL-2 cells assessed as cell growth at 0.1 uM
compound,measurement,setting,value
CN1CCN(C(=O)CSc2nnc(-c3cccnc3SCc3ccccc3)o2)CC1,growth at 0.1 µM,UO-31,30.9%
same,growth at 0.1 µM,786-0,109%
same,growth at 0.1 µM,TK-10,115%
same,growth at 0.1 µM,SN12C,64.2%
same,growth at 0.1 µM,RXF 393,89.1%
same,growth at 0.1 µM,ACHN,80.8%
same,growth at 0.1 µM,CAKI-1,93.4%
same,growth at 0.1 µM,A498,78.5%
same,growth at 0.1 µM,SK-OV-3,101%
same,growth at 0.1 µM,NCI/ADR-RES,89.2%
same,growth at 0.1 µM,OVCAR-8,97.7%
same,growth at 0.1 µM,OVCAR-5,101%
same,growth at 0.1 µM,OVCAR-3,92%
same,growth at 0.1 µM,OVCAR-4,57.4%
same,growth at 0.1 µM,IGROV-1,75.3%
same,growth at 0.1 µM,UACC-62,76.8%
same,growth at 0.1 µM,UACC-257,96.8%
same,growth at 0.1 µM,SK-MEL-5,84.8%
same,growth at 0.1 µM,SK-MEL-28,107%
same,growth at 0.1 µM,MDA-MB-435,93.8%
same,growth at 0.1 µM,M14,99.6%
same,growth at 0.1 µM,Malme-3M,97.1%
same,growth at 0.1 µM,LOX IMVI,90.3%
same,growth at 0.1 µM,U-251,83.9%
same,growth at 0.1 µM,SNB-75,83%
same,growth at 0.1 µM,SF-539,98.6%
same,growth at 0.1 µM,SNB-19,82%
same,growth at 0.1 µM,SF-295,89.6%
same,growth at 0.1 µM,SF-268,67.5%
same,growth at 0.1 µM,COLO 205,110%
same,growth at 0.1 µM,SW-620,97.2%
same,growth at 0.1 µM,KM12,72.8%
same,growth at 0.1 µM,HCT-15,86.5%
same,growth at 0.1 µM,HT-29,93.7%
same,growth at 0.1 µM,HCT-116,94.7%
same,growth at 0.1 µM,[1],90.5%
same,growth at 0.1 µM,NCI-H460,90.1%
same,growth at 0.1 µM,NCI-H522,71.3%
same,growth at 0.1 µM,NCI-H23,87.6%
same,growth at 0.1 µM,HOP-62,97%
same,growth at 0.1 µM,HOP-92,43.3%
same,growth at 0.1 µM,[2],70.7%
same,growth at 0.1 µM,A549,68.5%
same,growth at 0.1 µM,SR,79.8%
same,growth at 0.1 µM,MOLT-4,48.2%
same,growth at 0.1 µM,RPMI-8226,61.5%
same,growth at 0.1 µM,K562,83%
same,growth at 0.1 µM,HL-60,70.3%
same,growth inhibition (GI),[3],97%
same,MIC,"[3]; Mycobacterium tuberculosis, H37Rv",250 µg/mL
same,MIC,Aspergillus clavatus,1000 µg/mL
same,MIC,Aspergillus niger,500 µg/mL
same,MIC,Candida albicans,500 µg/mL
same,MIC,Pseudomonas aeruginosa,200 µg/mL
same,MIC,Escherichia coli,100 µg/mL
same,MIC,Streptococcus pyogenes,125 µg/mL
same,MIC,Staphylococcus aureus,250 µg/mL
same,growth at 0.1 µM,MDA-MB-468,74.8%
same,growth at 0.1 µM,T47D,55.3%
same,growth at 0.1 µM,[4],93.2%
same,growth at 0.1 µM,BT-549,95.4%
same,growth at 0.1 µM,MDA-MB-231,56.5%
same,growth at 0.1 µM,DU-145,81.7%
same,growth at 0.1 µM,MCF7,76.7%
same,growth at 0.1 µM,PC-3,57.4%
same,growth at 0.1 µM,SK-MEL-2,101%
